Measurements from patent US9284325B2, “Spectinamides as anti-tuberculosis agents” (UNIVERSITY OF TENNESSEE RESEARCH FOUNDATION, priority 2009, dated 2016).
Where a name gives a salt, the structure may show the parent alone. Read-outs that look alike come from different tables or passages of the source.

What was measured:
[1] = system: Proteus mirabilis ATCC 25933; test: MIC determination by microbroth dilution; assay type: cell-based; settings: for MIC: ATCC25933
E. faecalis ATCC 33186 = test: MIC determination by microbroth dilution; assay type: cell-based, Enterococcus faecalis; settings: for MIC: Enterococcus faecalis, ATCC33186
[2] = system: Acinetobacter baumannii ATCC 19606; test: MIC determination by microbroth dilution; assay type: cell-based; settings: for MIC: ATCC19606
M. tuberculosis H37Rv = test: MIC determination by microbroth dilution, anti-tuberculosis activity; assay type: cell-based, Mycobacterium tuberculosis
[3] = system: Strenotrophomonas maltophilia ATCC 13637; test: MIC determination by microbroth dilution; assay type: cell-based
E. coli K12 = test: MIC determination by microbroth dilution; assay type: cell-based, Escherichia coli; settings: for MIC: Escherichia coli, K12
E. coli ribosomes = assay type: biochemical; settings: for IC50, 50% inhibition of luciferase biosynthesis in S30 assay: E. coli S30 transcription/translation assay; for relative inhibitory activity on luciferase production: tested at 0.66 and 6.6 μM, FIG. 5
[4] = system: Burkholderia cepacia ATCC 25416; test: MIC determination by microbroth dilution; assay type: cell-based; settings: for MIC: ATCC25416, read-out: MIC B. cepcia
[5] = system: Strep. pyogenes ATCC 700294; test: MIC determination by microbroth dilution; assay type: cell-based, Streptococcus pyogenes; settings: for MIC: Streptococcus pyogenes, ATCC700294, read-out: MIC S. pyogenes
[6] = system: S. aureus 8325 or strain ATCC 29213; test: MIC determination by microbroth dilution; assay type: cell-based, Staphylococcus aureus; settings: S. aureus 8325 or strain ATCC 29213 (for 1471-1544); for MIC: Staphylococcus aureus, ATCC29213
P. aeruginosa PAO1 = test: MIC determination by microbroth dilution; assay type: cell-based, Pseudomonas aeruginosa; settings: for MIC: Pseudomonas aeruginosa
[7] = system: Proteus vulgaris ATCC 33420; test: MIC determination by microbroth dilution; assay type: cell-based; settings: for MIC: ATCC33420
E. coli K12 ΔtolC = test: microbe, parasite or virus in culture; assay type: cell-based; settings: for MIC E. coli K12 ΔtolC: tolC knockout strain, defective multi-drug efflux pump; for MIC: Escherichia coli, read-out: MIC E. coli K12 ΔtolC
[8] = system: Klebsiella pneumoniae ATCC 33495; test: MIC determination by microbroth dilution; assay type: cell-based; settings: for MIC: ATCC33495
[9] = system: Strep. pneumoniae DAW27 or strain R6; test: MIC determination by microbroth dilution; assay type: cell-based, Streptococcus pneumoniae; settings: Strep. pneumoniae DAW27 or strain R6 (for 1443-1544); for MIC: Streptococcus pneumoniae, read-out: MIC S. pneumoniae
B. anthracis Sterne 34F2 = test: microbe, parasite or virus in culture; assay type: cell-based, Bacillus anthracis; settings: for MIC: Bacillus anthracis, STERNE34F2, read-out: MIC B. anthracis 34F2
[10] = Mycobacterium tuberculosis, H37RV, 168 h, read-out: MIC

Row | Compound | IC50, 50% inhibition of luciferase biosynthesis in S30 assay (E. coli ribosomes) | MIC [1] | MIC (E. faecalis ATCC 33186) | MIC [2] | MIC (M. tuberculosis H37Rv; [10]) | MIC [3] | MIC (E. coli K12) | MIC [4] | MIC [5] | MIC [6] | MIC (P. aeruginosa PAO1) | MIC [7] | MIC (E. coli K12 ΔtolC) | MIC [8] | MIC [9] | MIC (B. anthracis Sterne 34F2) | other results
1 | 3′-Dihydro-3′-deoxy-4(R)-dodecanoylamino spectinomycin Dihydrochloride [Compound 1366] | 15.3 µg/mL | – | – | – | – | – | – | – | – | – | – | – | – | – | – | – | MIC P. mir [1]: >200 µg/mL; MIC E. faecalis (E. faecalis ATCC 33186): 25 µg/mL; MIC A. bau. [2]: >200 µg/mL; MIC (M. tuberculosis H37Rv): 1.6 µg/mL; MIC S. mal [3]: 25 µg/mL; MIC E. coli K12 (E. coli K12): >200 µg/mL; MIC B. cepcia [4]: >200 µg/mL; MIC S. pyogenes [5]: >200 µg/mL; MIC S. aureus [6]: 25 µg/mL; MIC P. aer. (P. aeruginosa PAO1): 50 µg/mL; MIC P. vul [7]: >200 µg/mL; MIC E. coli K12 ΔtolC (E. coli K12 ΔtolC): 12.5 µg/mL; MIC K. pneu. [8]: >200 µg/mL; MIC S. pneumoniae [9]: 25 µg/mL; MIC B. anthracis 34F2 (B. anthracis Sterne 34F2): >200 µg/mL
2 | 3′-Dihydro-3′-deoxy-4(R)-dodecylamino spectinomycin Trihydrochloride [Compound 1421] | – | – | – | – | – | – | – | – | – | – | – | – | – | – | – | – | MIC P. mir [1]: >200 µg/mL; MIC E. faecalis (E. faecalis ATCC 33186): 200 µg/mL; MIC A. bau. [2]: 50 µg/mL; MIC (M. tuberculosis H37Rv): 25 µg/mL; MIC S. mal [3]: 12.5 µg/mL; MIC E. coli K12 (E. coli K12): 200 µg/mL; relative inhibitory activity on luciferase production (E. coli ribosomes): less active than 1329; MIC B. cepcia [4]: 50 µg/mL; MIC S. pyogenes [5]: 50 µg/mL; MIC S. aureus [6]: 200 µg/mL; MIC P. aer. (P. aeruginosa PAO1): >200 µg/mL; MIC P. vul [7]: >200 µg/mL; MIC E. coli K12 ΔtolC (E. coli K12 ΔtolC): 50 µg/mL; MIC K. pneu. [8]: >200 µg/mL; MIC S. pneumoniae [9]: 200 µg/mL; MIC B. anthracis 34F2 (B. anthracis Sterne 34F2): 200 µg/mL
3 | CN[C@@H]1[C@H](O)[C@H](NC)C2O[C@]3(O)C(OC2[C@H]1O)O[C@H](C)C[C@H]3NC(=O)CCc1cccnc1 (stereo partly drawn) [Compound 1299, 3′-Dihydro-3′-deoxy-4(R)-(3-pyridin-3-yl)propionylamino spectinomycin Dihydrochloride] | 0.97 µg/mL | > 200 µg/mL | > 200 µg/mL | > 200 µg/mL | 25 µg/mL | > 200 µg/mL | > 200 µg/mL | > 200 µg/mL | 200 µg/mL | 200 µg/mL | > 200 µg/mL | > 200 µg/mL | 200 µg/mL | > 200 µg/mL | 200 µg/mL | 200 µg/mL | –
4 | CN[C@@H]1[C@H](O)[C@H](NC)C2O[C@]3(O)C(OC2[C@H]1O)O[C@H](C)C[C@H]3NC(=O)CNC(C)(C)C (stereo partly drawn) [Compound 1351, 3′-Dihydro-3′-deoxy-4(R)-(tert-butylamino)-acetylamino spectinomycin Dihydrochloride] | 0.22 µg/mL | > 200 µg/mL | > 200 µg/mL | > 200 µg/mL | 25 µg/mL | 50 µg/mL | > 200 µg/mL | > 200 µg/mL | 100 µg/mL | 200 µg/mL | 200 µg/mL | > 200 µg/mL | 50 µg/mL | 200 µg/mL | 200 µg/mL | 50 µg/mL | relative inhibitory activity on luciferase production (E. coli ribosomes): next most active
5 | CN[C@@H]1[C@H](O)[C@H](NC)C2O[C@]3(O)C(OC2[C@H]1O)O[C@H](C)C[C@H]3NC(=O)Cc1csc(Nc2ccc(OC(F)(F)F)cc2)n1 (stereo partly drawn) [Compound 1540, 3′-Dihydro-3′-deoxy-4(R)-(2-((4-(trifluoromethoxy)phenyl)amino)-thiazol-4-yl)acetylamino spectinomycin tribromide] | – | > 200 µg/mL | 25 µg/mL | > 200 µg/mL | 6.25 µg/mL | 200 µg/mL | > 200 µg/mL | > 200 µg/mL | 6.25 µg/mL | 100 µg/mL | 25 µg/mL | > 200 µg/mL | 12.5 µg/mL | > 200 µg/mL | 6.25 µg/mL | > 200 µg/mL | –
6 | CN[C@@H]1[C@H](O)[C@H](NC)C2O[C@]3(O)C(OC2[C@H]1O)O[C@H](C)C[C@H]3NC(=O)Cc1csc(Nc2ccc(C(F)(F)F)cc2)n1 (stereo partly drawn) [Compound 1541, 3′-Dihydro-3′-deoxy-4(R)-(2-((4-(trifluoromethyl)phenyl)amino)-thiazol-4-yl)acetylamino spectinomycin tribromide] | – | > 200 µg/mL | 25 µg/mL | > 200 µg/mL | 6.25 µg/mL | 200 µg/mL | > 200 µg/mL | > 200 µg/mL | 6.25 µg/mL | 100 µg/mL | 25 µg/mL | > 200 µg/mL | 12.5 µg/mL | > 200 µg/mL | 3.1 µg/mL | > 200 µg/mL | –
7 | CN[C@@H]1[C@H](O)[C@H](NC)C2O[C@]3(O)C(OC2[C@H]1O)O[C@H](C)C[C@H]3NC(=O)Cc1ccc(-c2ccc(F)cc2)cn1 (stereo partly drawn) [Compound 1542, 3′-Dihydro-3′-deoxy-4(R)-(5-(4-fluorophenyl)pyridin-2-yl)acetylamino spectinomycin tribromide] | – | > 200 µg/mL | 25 µg/mL | > 200 µg/mL | 3.12 µg/mL | > 200 µg/mL | > 200 µg/mL | > 200 µg/mL | 6.25 µg/mL | 100 µg/mL | > 200 µg/mL | > 200 µg/mL | 12.5 µg/mL | > 200 µg/mL | 3.1 µg/mL | > 200 µg/mL | –
8 | CN[C@@H]1[C@H](O)[C@H](NC)C2O[C@]3(O)C(OC2[C@H]1O)O[C@H](C)C[C@H]3NC(=O)Cc1ccc(-c2cccc(OC)c2)cn1 (stereo partly drawn) [Compound 1543, 3′-Dihydro-3′-deoxy-4(R)-(5-(3-methoxyphenyl)pyridin-2-yl)acetyl-amino spectinomycin tribromide] | – | > 200 µg/mL | 12.5 µg/mL | > 200 µg/mL | 6.25 µg/mL | 200 µg/mL | > 200 µg/mL | > 200 µg/mL | 6.25 µg/mL | 100 µg/mL | > 200 µg/mL | > 200 µg/mL | < 6.25 µg/mL | > 200 µg/mL | 3.1 µg/mL | > 200 µg/mL | –
9 | CN[C@@H]1[C@H](O)[C@H](NC)C2O[C@]3(O)C(OC2[C@H]1O)O[C@H](C)C[C@H]3NC(=O)Cc1cc(Cl)ccn1 (stereo partly drawn) [Compound 1544, 3′-Dihydro-3′-deoxy-4(R)-(4-chloropyridin-2-yl)acetylamino spec-tinomycin tribromide] | – | > 200 µg/mL | 100 µg/mL | > 200 µg/mL | 0.8 µg/mL | > 200 µg/mL | > 200 µg/mL | > 200 µg/mL | 12.5 µg/mL | 50 µg/mL | > 200 µg/mL | > 200 µg/mL | 12.5 µg/mL | > 200 µg/mL | 6.25 µg/mL | > 200 µg/mL | –
